# Assay results as given in patent publication US5589474A, “Dibenzothiazepinthione as antiviral agents” (Glaxo Wellcome Inc., priority 1991, dated 1996).
# Experiments:
# HIV [1] = test: HeLa-CD4 plaque reduction assay (HIV in vitro); format: cell-based; conditions: Human immunodeficiency virus 1
# HIV [2] = test: HIV (in vitro) MT4 assay; format: cell-based; conditions: Human immunodeficiency virus 1
IC50 (HIV [1]),IC50 (HIV [2]),Structure (SMILES)
5 µM,9 µM,"S=C1Nc2ccccc2Sc2ccccc21 [Example 3, 10,11-Dihydrodibenzo[b,f][1,4]thiazepin-11-thione]"
14.4 µM,44.4 µM,"O=[N+]([O-])c1ccc2c(c1)C(=S)Nc1ccccc1S2 [Example 6, 2-Nitro-10,11-dihydrodibenzo[b,f][1,4]thiazepin-11-thione]"
15.4 µM,3.3 µM,"Fc1cccc2c1Sc1ccccc1NC2=S [8(iv), 4-Fluoro-10,11-dihydrobenzo[b,f][1,4]thiazepin-11-thione]"
